Data on five compounds can be found in patent US20040102652A1, “Optically active2-aminotetralin derivatives, the processes for the preparation thereof and the therapeutical use of pharmaceutical compositions containing them” (priority 2000, published 2004).

“Also recorded” adds a separate entry of the source. Where two headings read alike, the source gives them in different places.

One series concerns the target T1, Central DA1 receptor (Rattus norvegicus, UniProt P18901).
T1 construct: from tissue; host or cells: rat striatum
In words: Binding study, rat striatum, [3H]-SCH23390. On the procedure:
(§1) The affinity of the enantiomers for adrenergic and dopaminergic receptors was tested by binding studies in cerebral and peripheral tissues. The results are reported in Table 1 compared with CHF 1024 racemate in terms of inhibition constant (Ki) expressed as nanomolar concentration (nM).

The target of the next series is Central DA2-receptor (Rattus norvegicus, UniProt P61169). In words: Binding study, rat striatum, [3H]-spiperone. Conditions: for Ki: rat striatum, [3H]-spiperone. On the procedure:
as §1

A further series addresses Central α1-receptor. Nature of the series: Binding study, rat cerebral cortex, [3H]-prazosin. On the procedure:
as §1

In another series the target is Central α2-receptor. Nature of the series: Binding study, rat cerebral cortex, [3H]-rauwolscine. The following applies: for Ki: rat cerebral cortex, [3H]-rauwolscine. As to the method:
as §1

Series [1] addresses T2, β1-receptor (Rattus norvegicus, UniProt P18090).
T2 construct: from tissue; host or cells: rat lung
In words: Binding study, rat lung, [3H]-(−)dihydroalprenolol. As to the method:
as §1

In another series the target is T3, β2-receptor (Rattus norvegicus, UniProt P10608).
T3 construct: from tissue; host or cells: rat lung
In words: Binding study, rat lung, [3H]-(−)dihydroalprenolol. As to the method:
as §1

The target in series [2] is Pre-synaptic DA2 receptor (Oryctolagus cuniculus, UniProt G1T1Q0). Nature of the series: Electrically stimulated rabbit rectococcigeus muscle, inhibition of contraction. Conditions: read-out: effectiveness (α).
Method: (§2) The pharmacological activity of the enantiomers toward the same receptors was also tested in isolated tissue preparations. […] EC50 is the concentration inducing 50% of the maximal response and is expressed in mols/liter (M).
Series [3] deals with Pre-synaptic DA2 and α2 receptor. In words: Perfused rabbit ear artery, inhibition of electrically-induced contraction. Conditions: for pD2 (−log EC50): EC50 in M.
Method: as §2
Another series addresses T4, β2-receptors (Cavia porcellus, UniProt Q8K4Z4).
T4 construct: was also tested in isolated tissue preparations; from tissue; host or cells: guinea-pig tracheal strips
Nature of the series: Guinea-pig tracheal strips contracted with carbachol, relaxing effect.

In series [4] the target is β1-receptor (Cavia porcellus, UniProt H0W3H1). The following applies: guinea pig, read-out: effectiveness (α).
A further series deals with α1 receptor. Conditions: background statement; cited from earlier work.
The conditions of series [5]: after oral administration of the racemate.
Series [6] relates to plasma and tissular esterases. The following applies: after administration through different routes (oral, transdermal); cited from earlier work.
Series [7] can be described thus: Diffraction studies of crystal modifications. The following applies: temperature dependent.
For series [8], the system named is anaesthetized normotensive rats. In words: Arterial pressure in anaesthetized normotensive rats, intravenous infusion. The format is in vivo, rat. Conditions: intravenous infusion for 30 min. On the procedure: In anaesthetized normotensive rats with recording of the arterial pressure, the effects induced by intravenous infusion for 30 min of CHF 1024 enantiomers compared with the racemate were evaluated. Control animals only received the vehicle. The results are reported in FIG. 1 as mean values and standard error.

Series [9] deals with conscious spontaneously hypertensive rats. In words: Arterial pressure and heart rate in conscious spontaneously hypertensive rats (telemetry). The format is in vivo, rat. Conditions: for recovery to basal values after treatment: after interruption of s.c. treatment; for effect on heart rate (words, summary): subcutaneous administration for 7 days.
Setting [10] is: rat striatum, [3H]-SCH23390, read-out: Ki.
[11] abbreviates: rat lung, [3H]-(−)dihydroalprenolol, read-out: Ki.
Setting [12] is: EC50 in M, guinea-pig tracheal strips, read-out: pD2 (−log EC50) (converted).
Setting [13] is: higher dose (6 nmol/kg/min) s.c., 7 days.

T4 sequence (Q8K4Z4 whole entry): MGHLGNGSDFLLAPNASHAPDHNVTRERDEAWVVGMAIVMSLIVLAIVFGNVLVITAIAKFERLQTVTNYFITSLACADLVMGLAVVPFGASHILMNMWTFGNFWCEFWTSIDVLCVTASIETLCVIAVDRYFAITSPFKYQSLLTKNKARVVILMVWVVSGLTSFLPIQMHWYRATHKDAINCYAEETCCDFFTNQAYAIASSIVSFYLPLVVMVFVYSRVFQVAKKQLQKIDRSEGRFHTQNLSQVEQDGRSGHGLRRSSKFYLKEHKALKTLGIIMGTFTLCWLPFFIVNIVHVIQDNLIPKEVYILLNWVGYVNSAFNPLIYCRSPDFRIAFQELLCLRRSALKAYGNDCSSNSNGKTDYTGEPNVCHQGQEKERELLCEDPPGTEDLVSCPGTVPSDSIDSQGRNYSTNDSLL
Central DA2-receptor, sequence (P61169 whole entry): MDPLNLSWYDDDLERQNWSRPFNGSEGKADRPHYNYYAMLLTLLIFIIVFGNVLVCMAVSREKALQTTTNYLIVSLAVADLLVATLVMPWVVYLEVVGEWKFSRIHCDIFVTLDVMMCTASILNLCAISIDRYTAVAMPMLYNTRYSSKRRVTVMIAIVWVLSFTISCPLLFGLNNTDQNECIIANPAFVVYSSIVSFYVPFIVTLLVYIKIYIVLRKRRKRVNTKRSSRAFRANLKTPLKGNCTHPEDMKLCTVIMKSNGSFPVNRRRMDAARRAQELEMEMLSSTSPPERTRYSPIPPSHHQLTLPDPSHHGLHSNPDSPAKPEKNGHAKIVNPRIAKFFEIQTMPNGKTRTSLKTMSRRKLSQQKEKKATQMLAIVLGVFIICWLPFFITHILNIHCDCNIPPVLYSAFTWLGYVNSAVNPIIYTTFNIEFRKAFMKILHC
β1-receptor (Cavia porcellus, UniProt H0W3H1), sequence (H0W3H1 1-470): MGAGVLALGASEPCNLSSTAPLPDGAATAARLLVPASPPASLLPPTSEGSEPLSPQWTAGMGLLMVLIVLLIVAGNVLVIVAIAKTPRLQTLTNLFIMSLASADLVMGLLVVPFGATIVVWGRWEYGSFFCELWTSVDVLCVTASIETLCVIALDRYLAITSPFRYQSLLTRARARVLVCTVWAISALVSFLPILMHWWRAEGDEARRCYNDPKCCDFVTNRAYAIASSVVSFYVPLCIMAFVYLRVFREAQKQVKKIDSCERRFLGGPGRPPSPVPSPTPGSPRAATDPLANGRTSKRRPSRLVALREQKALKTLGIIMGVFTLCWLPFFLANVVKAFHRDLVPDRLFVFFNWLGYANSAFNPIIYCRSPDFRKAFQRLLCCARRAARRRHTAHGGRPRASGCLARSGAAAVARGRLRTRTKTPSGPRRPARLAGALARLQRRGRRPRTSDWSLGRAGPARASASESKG
T2 sequence (P18090 whole entry): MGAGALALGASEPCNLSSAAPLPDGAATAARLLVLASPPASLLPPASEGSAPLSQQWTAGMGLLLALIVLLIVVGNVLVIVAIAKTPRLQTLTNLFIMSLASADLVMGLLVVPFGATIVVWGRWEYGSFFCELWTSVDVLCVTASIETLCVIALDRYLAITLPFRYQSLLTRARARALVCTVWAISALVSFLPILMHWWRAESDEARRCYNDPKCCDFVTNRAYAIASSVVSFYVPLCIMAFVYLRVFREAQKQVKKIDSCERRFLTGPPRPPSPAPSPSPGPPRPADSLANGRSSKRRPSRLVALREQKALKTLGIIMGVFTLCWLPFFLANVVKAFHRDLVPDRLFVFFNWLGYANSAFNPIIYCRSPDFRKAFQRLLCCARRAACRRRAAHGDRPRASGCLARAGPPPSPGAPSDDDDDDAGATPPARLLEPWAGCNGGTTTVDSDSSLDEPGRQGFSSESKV
T3 sequence (P10608 whole entry): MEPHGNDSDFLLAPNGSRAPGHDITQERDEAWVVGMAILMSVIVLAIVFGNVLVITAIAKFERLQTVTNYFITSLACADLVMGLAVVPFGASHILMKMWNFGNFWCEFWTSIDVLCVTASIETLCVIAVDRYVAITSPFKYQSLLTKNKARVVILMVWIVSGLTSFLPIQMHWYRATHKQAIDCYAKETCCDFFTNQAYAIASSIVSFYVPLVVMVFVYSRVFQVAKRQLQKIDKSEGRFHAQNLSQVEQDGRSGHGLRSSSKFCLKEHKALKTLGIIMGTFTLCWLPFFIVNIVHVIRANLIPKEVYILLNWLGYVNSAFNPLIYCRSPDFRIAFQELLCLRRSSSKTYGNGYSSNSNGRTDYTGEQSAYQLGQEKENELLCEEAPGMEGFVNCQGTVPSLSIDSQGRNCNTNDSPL
T1 sequence (P18901 whole entry): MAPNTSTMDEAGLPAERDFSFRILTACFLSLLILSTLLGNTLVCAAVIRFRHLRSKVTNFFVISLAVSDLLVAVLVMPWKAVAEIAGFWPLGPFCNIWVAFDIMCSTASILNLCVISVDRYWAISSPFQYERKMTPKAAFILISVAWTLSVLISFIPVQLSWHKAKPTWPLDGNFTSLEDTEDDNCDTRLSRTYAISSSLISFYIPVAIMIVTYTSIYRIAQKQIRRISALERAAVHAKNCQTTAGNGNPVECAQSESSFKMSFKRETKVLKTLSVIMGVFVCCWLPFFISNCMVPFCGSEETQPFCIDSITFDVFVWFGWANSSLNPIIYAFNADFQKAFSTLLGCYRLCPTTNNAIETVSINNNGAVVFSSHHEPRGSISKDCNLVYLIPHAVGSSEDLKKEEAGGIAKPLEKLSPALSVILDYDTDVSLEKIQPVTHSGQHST
Pre-synaptic DA2 receptor, sequence (G1T1Q0 1-443): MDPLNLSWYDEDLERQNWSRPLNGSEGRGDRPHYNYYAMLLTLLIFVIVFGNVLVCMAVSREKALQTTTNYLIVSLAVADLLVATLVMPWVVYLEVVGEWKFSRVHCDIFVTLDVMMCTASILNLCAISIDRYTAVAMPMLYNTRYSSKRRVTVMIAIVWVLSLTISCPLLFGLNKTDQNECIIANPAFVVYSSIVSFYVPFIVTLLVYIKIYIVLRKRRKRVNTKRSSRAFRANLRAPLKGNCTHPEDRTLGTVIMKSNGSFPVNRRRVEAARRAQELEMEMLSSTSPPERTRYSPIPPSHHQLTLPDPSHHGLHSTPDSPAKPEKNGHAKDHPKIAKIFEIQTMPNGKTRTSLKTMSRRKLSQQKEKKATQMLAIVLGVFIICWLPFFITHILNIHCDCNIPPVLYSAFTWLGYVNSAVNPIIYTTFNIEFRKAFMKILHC

For `CNC1CCc2c(ccc(O)c2O)C1` (racemic) [CHF 1024, (±)-5,6-dihydroxy-2-methylaminotetralin, reference compound], the Ki – broadly, the dissociation constant of the complex between target and ligand, obtained from inhibition or displacement – at Central DA1 receptor stood at 13 µM; on Central DA2-receptor (read-out: Ki), 0.29 µM; on Central α1-receptor, 16 µM; at Central α2-receptor it was 0.26 µM; at β1-receptor [1] it was 45 µM; at β2-receptor, 1.5 µM. Besides, the Emax came to 96% in [2] and 81% at β1-receptor [4]. In [3] (rabbit ear artery), the “pD2 (−log EC50)” value was 9.0. Also, the results for the “effectiveness (α)” value (in series [3] (rabbit ear artery); on β2-receptors (guinea-pig tracheal strips)) were 0.94 and 0.96, respectively. On β2-receptors, a half-maximal response (EC50) required 0.251 µM. Moreover, the “agonist activity on α1 receptor” value in the series with α1 receptor is on record as “negligible”.

For `CNC1CCc2c(ccc(OC(=O)C(C)C)c2OC(=O)C(C)C)C1` (racemic) [CHF 1035, (±)-(R,S)-5,6-Diisobutyroyloxy-2-methylaminotetralin], the “AUC of the dextro form relative to that of the laevo form” value in [5] is reported as “about one half”. Besides, in series [6], the “conversion into the desesterified form CHF 1024” value was “quickly and completely converted”. For the same compound, the “structural rearrangement of the crystal form (polymorphic stability)” value in series [7] is “form I shows two remarkable structural rearrangements”.

Consider `CN[C@H]1CCc2c(ccc(OC(=O)C(C)C)c2OC(=O)C(C)C)C1.Cl` [CHF 1810, (−)-(S)-5,6-diisobutyroyloxy-2-methylaminotetralin hydrochloride], for which the “structural rearrangement of the crystal form (polymorphic stability)” value in [7] is “does not show any structural rearrangement below 100 °C”.

As to `CN[C@@H]1CCc2c(ccc(O)c2O)C1` [CHF 1869], the Ki amounted to 7.4 µM at Central DA1 receptor (setting [10]); 2.4 µM at Central DA2-receptor; 21 µM on Central α1-receptor; 1.6 µM on Central α2-receptor; 90 µM on β1-receptor [1] (setting [11]); 1.4 µM at β2-receptor (setting [11]). For the same compound, the Emax turned out to be 87% in series [2] and 83% at β1-receptor [4]. Further, the “pD2 (−log EC50)” value in [3] (rabbit ear artery) is under 5.0. Further, in series [3] (isolated tissue preparations), the “activity on α2 and DA2 receptors” value was “poor activity on α2 and DA2 receptors”. For the same compound, the “effectiveness (α)” value is reported as 0.92 in series [3] (rabbit ear artery) and 0.97 on β2-receptors (guinea-pig tracheal strips). Moreover, the EC50 – broadly, the concentration at which the effect is half-maximal – at β2-receptors (setting [12]) is 0.251 µM. For the same compound, the “effect on arterial pressure (hypotensive response)” value in series [8] was “rapid onset and disappearance of the hypotensive effects; also recorded: more rapid but less lasting response”. The “effect on heart rate” value in [9] (3 nmol/kg/min s.c., 7 days) is given as “no reduction of heart rate”; in series [9] (setting [13]) it was “no reduction of heart rate is observed, which even increases during the first 2-3 days of treatment”. In addition, the “hypotensive effect” value in series [9] (3 nmol/kg/min s.c., 7 days) is recorded as “slight, although noticeable, hypotensive effect”. In series [9], the “recovery to basal values after treatment” value is “faster than with CHF 1870”. Further, the “hypotensive response” value in series [9] (setting [13]) is listed as “comparable to that caused by its optical antipode”. The “effect on heart rate (words, summary)” value in series [9] is “no reduction of heart rate”.

With `CN[C@H]1CCc2c(ccc(O)c2O)C1` [CHF 1870, (−)-(S)-5,6-dihydroxy-2-methylaminotetralin], the Ki at Central DA1 receptor (setting [10]) stood at 6.8 µM; at Central DA2-receptor, 0.12 µM; at Central α1-receptor it was 15 µM; on Central α2-receptor it was 0.13 µM; on β1-receptor [1] (setting [11]) it was 40 µM; on β2-receptor (setting [11]), 1 µM. The “affinity for DA2-dopaminergic receptors relative to the dextro enantiomer (CHF 1869)” value on Central DA2-receptor (from Table 1) is “about 20 times”. Also, the “affinity for α2-adrenergic receptors relative to the dextro enantiomer (CHF 1869)” value in the series with Central α2-receptor (from Table 1) is reported as about 10 times. The Emax (in series [2]; at β1-receptor [4]) was 91% throughout. Besides, the “pD2 (−log EC50)” value in [3] (rabbit ear artery) is listed as 9.6. The figures for the “effectiveness (α)” value (in series [3] (rabbit ear artery); on β2-receptors (guinea-pig tracheal strips)) were 0.92 and 0.97, respectively. In addition, in series [3] (rabbit ear artery), the “potency relative to its optical antipode” value is given as “at least 10000 times”. In addition, on β2-receptors (setting [12]), the EC50 is 0.398 µM. Further, the “effect on arterial pressure (hypotensive response)” value in series [8] was “dose-dependent reduction of the arterial pressure which was maintained even after infusion was discontinued; also recorded: hypotensive response slightly lower but remarkably longer-lasting than that of the racemate”. Besides, the “reduction of arterial pressure” value in [9] (3 nmol/kg/min s.c. osmotic minipump, 7 days) is on record as 20-30 mmHg. Besides, the “effect on heart rate” value in series [9] (3 nmol/kg/min s.c., 7 days) is reported as “greater reduction of heart rate compared with the racemate”. Further, in series [9], the “recovery to basal values after treatment” value is reported as “took place more slowly”. Further, in series [9] (setting [13]), the “reduction of heart rate” value is given as “about 70 beats/minute”. Besides, in [9], the “effect on heart rate (words, summary)” value is given as “more marked reduction of heart rate than an equivalent dose of the racemate”.
